{
  "source": "patent US20030040478A1",
  "about": "“Chemotherapy treatment” (priority 2002, published 2003)",
  "key": {"irinotecan-treated mice [1]": {"test_system": "irinotecan-treated mice", "details": "mouse, in vivo", "description": "(§1) FIG. 2. (A) Prevalence of positive bacterial aerobic cultures from mesenteric, splenic, and liver homogenates and whole blood. Groups of mice (n=20 mice for each treatment group) were pretreated for 3 days with either saline or h[Gly2]-GLP-2 as shown in FIG. 1A and euthanized 96 hrs after commencing irinotecan treatment (two injections of 280 mg/kg per dose). *=P<0.05, saline versus h[Gly2]-GLP-2 treated mice after irinotecan. […] (B) The leukocyte count in saline- and h[Gly2]-GLP-2 treated control and irinotecan-treated mice. + and *=p<0.05 for saline- and h[Gly2]-GLP-2-treated groups versus irinotecan-treated mice. #=P<0.05, irinotecan-treated mice pretreated with saline versus h[Gly2]-GLP-2.\nMicrobiology: At various time points following chemotherapy administration, aliquots of whole blood and tissue homogenates obtained using sterile technique were plated on blood agar plates and incubated at 37° C. for 48 hrs."}, "[2]": {"test_system": "irinotecan-treated CD1 mice, jejunum and colon crypts", "test": "Crypt survival and cell number per hemi-crypt (histology) after irinotecan", "type": "in vivo, mouse", "details": "small and large intestine following irinotecan; FIGS. 3A-D", "description": "FIG. 3. Mean crypt survival (A and C) and mean cell number per hemi-crypt (B and D) from the midjejunum (A and B) and colon (C and D) of control and irinotecan-treated CD1 mice administered either saline (vehicle) or h[Gly2]-GLP-2 as a 3 day pretreatment regimen. Dotted lines represent line of best fit for data shown between 60 and 96 h. Five mice per treatment group were euthanized for analysis commencing immediately prior to the first of two injections of irinotecan (280 mg/kg per dose) and at 12 hr intervals up to 96 hrs. Crypt survival was measured along the entire bowel circumference, and the mean cell number per hemi-crypt determined in 50 consecutive intact crypts per animal. *=P<0.05, **=P<0.001, saline versus h[Gly2]-GLP-2 treated mice.\nHistological Analysis: Four- to six-micrometer histological cross sections from the intestine of each mouse were cut and stained with hematoxylin and eosin and micrometry was performed as described. Boushey, R. P. et al., Am. J. Physiol. 277: E937-E947, 1999. The number of cells per hemi-crypt column and the number of surviving crypts per circumference were measured in both the small and large intestine at 12 h intervals (n=5 mice per time point) following irinotecan administration as previously described. Wright, N. A. et al., Cell Tissue Kinet. 22: 425-50, 1989; Withers, H. R. et al., Int. J. Radiat. […] All slides were scored in a blinded fashion."}, "irinotecan-treated mice [3]": {"test_system": "irinotecan-treated mice", "test": "Leukocyte count after irinotecan", "type": "in vivo, mouse", "details": "mice following irinotecan treatment", "description": "as §1\nLeukocyte Count: Whole blood samples were collected in venipuncture tubes containing EDTA and analyzed using an automated whole blood sorter calibrated for mouse samples. Blood smears were performed on all samples to confirm the automated analysis."}, "[4]": {"test_system": "rodents with indomethacin-induced intestinal injury", "details": "Boushey et al. 1999, cited from earlier work"}, "[5]": {"details": "mice following indomethacin-induced intestinal injury"}, "[6]": {"details": "rodents with indomethacin-induced intestinal injury"}},
  "data": [
    {"molecule": "CC[C@H](C)[C@H](NC(=O)[C@H](Cc1ccccc1)NC(=O)[C@H](CC(=O)O)NC(=O)[C@H](CCCNC(=N)N)NC(=O)[C@H](C)NC(=O)[C@H](C)NC(=O)[C@H](CC(C)C)NC(=O)[C@H](CC(N)=O)NC(=O)[C@H](CC(=O)O)NC(=O)[C@H](CC(C)C)NC(=O)[C@@H](NC(=O)[C@@H](NC(=O)[C@H](CC(N)=O)NC(=O)[C@H](CCSC)NC(=O)[C@H](CCC(=O)O)NC(=O)[C@H](CC(=O)O)NC(=O)[C@H](CO)NC(=O)[C@H](Cc1ccccc1)NC(=O)[C@H](CO)NC(=O)CNC(=O)[C@H](CC(=O)O)NC(=O)CNC(=O)[C@@H](N)Cc1c[nH]cn1)[C@@H](C)O)[C@@H](C)CC)C(=O)N[C@@H](CC(N)=O)C(=O)N[C@@H](Cc1c[nH]c2ccccc12)C(=O)N[C@@H](CC(C)C)C(=O)N[C@H](C(=O)N[C@@H](CCC(N)=O)C(=O)N[C@H](C(=O)N[C@@H](CCCCN)C(=O)N[C@H](C(=O)N[C@H](C(=O)N[C@@H](CC(=O)O)C(=O)O)[C@@H](C)O)[C@@H](C)CC)[C@@H](C)O)[C@@H](C)CC", "note": "[h[Gly2]-GLP-2]", "values": [
      {"measurement": "bacterial colonies in homogenates", "setting": "irinotecan-treated mice [1]", "result": "No bacterial colonies were detected"}
    ]},
    {"molecule": "CCc1c2c(nc3ccc(OC(=O)N4CCC(N5CCCCC5)CC4)cc13)-c1cc3c(c(=O)n1C2)COC(=O)[C@]3(O)CC", "note": "[irinotecan, 7-ethyl-10-[4-(1-piperidino)-1-piperidino] carbonyloxycamptothecin]", "values": [
      {"measurement": "number of crypts and number of cells within each crypt", "setting": "[2]", "result": "significant reduction in both the number of crypts and in the number of cells within each crypt"},
      {"measurement": "leukocyte count after irinotecan treatment", "setting": "irinotecan-treated mice [3]", "result": "significant leukopenia"}
    ]},
    {"molecule": "GLP-2: 33 amino acid product of the glucagon gene, an intestinotrophic peptide secreted by enteroendocrine cells (HADGSFSDEMNTILDNLAARDFINWLIQTKITD; Glucagon-like peptide 2; UniProt P01275 146-178, looked up)", "values": [
      {"measurement": "bacterial infection in the liver and spleen", "setting": "[4]; [5]", "result": "decreased bacterial infection in the liver and spleen"},
      {"measurement": "circulating bacteremia", "setting": "[4]; [5]", "result": "markedly reduced circulating bacteremia"},
      {"measurement": "epithelial damage", "setting": "[4]; [6]", "result": "reduces epithelial damage"},
      {"measurement": "survival", "setting": "[4]; [6]", "result": "improves survival"}
    ]}
  ]
}
